From patent US9891235B2, “Pathway specific assays for predicting irritable bowel syndrome diagnosis” (NESTEC S.A., priority 2013, dated 2018)

Key:
anti-KYA-L antibody = assay: Competitive assay with biotinylated kynurenic acid, competitors; type: binding, rabbit; conditions: increasing amounts of competitor, FIG. 18
Experimental: Also, the cross-reactivity of the antiserum was tested using a competitive assay as diagramed in FIG. 12B. The biotinylated antigen (e.g., biotinylated Ser-D) was coated onto a streptavidin plate. Serotonin (5-HT) or pathway metabolites thereof (e.g., Tryp, 5-OH Tryp or 5-HIAA) in human serum were derivatized and added to the antiserum. The mixture was added to the plate and incubated for 1 hour at RT. The plate was washed several times with wash buffer. The goat anti-rabbit antibody-HRP conjugate solution was added and incubated for 1 hour at RT. The plate was washed several times in wash buffer. A color substrate was added for the colorimetric reaction and stop solution was added prior to reading the plate at 405 nm.
The cross-reactivity of the anti-KYA-L antibody was tested using the competitive assay described above. Briefly, kynurenic acid metabolites, such as L-kynurenine (Ky), 3-hydroxy-DL-kynurenine (H-Ky) and L-tryptophan (Tryp) were used to compete with biotinylated kynurenic acid for antibody binding.

[1] = Stability of 5-HT and 5-HIAA (TLC, loss of signal); type: physicochemical

| sensitivity to oxygen / stability [1] | time in which degradation occurs ([1]; 4° C., from thawing, TLC (FIG. 3)) | stability (FIG. 4) ([1]; during a period of 1 week) | Structure (SMILES) | effect of competitor on level of anti-KYA-L detected (anti-KYA-L antibody) |
| --- | --- | --- | --- | --- |
|  |  |  | NCCCCCC(=O)Nc1ccc2nc(C(=O)O)cc(O)c2c1 [KYA-L, 6-(6-aminohexanamido)-4-hydroxyquinoline-2-carboxylic acid] | competed |
|  |  |  | Nc1c(O)cccc1C(=O)CC(N)C(=O)O (racemic) [H-Ky, 3-hydroxy-DL-kynurenine] | did not change |
|  |  |  | Nc1ccccc1C(=O)C[C@H](N)C(=O)O [Ky, L-kynurenine] | did not change |
|  |  |  | N[C@@H](Cc1c[nH]c2ccccc12)C(=O)O [Trypt, L-tryptophan] | did not change |
| very unstable | about 7 hours | unstable | NCCc1c[nH]c2ccc(O)cc12 [Compound 5-HT, serotonin] |  |
